The target of one assay is T1, human TLR7 (Homo sapiens, UniProt Q9NYK1).
T1 construct: host or cells: HEK-Blue cells
T1 sequence (Q9NYK1 27-1049): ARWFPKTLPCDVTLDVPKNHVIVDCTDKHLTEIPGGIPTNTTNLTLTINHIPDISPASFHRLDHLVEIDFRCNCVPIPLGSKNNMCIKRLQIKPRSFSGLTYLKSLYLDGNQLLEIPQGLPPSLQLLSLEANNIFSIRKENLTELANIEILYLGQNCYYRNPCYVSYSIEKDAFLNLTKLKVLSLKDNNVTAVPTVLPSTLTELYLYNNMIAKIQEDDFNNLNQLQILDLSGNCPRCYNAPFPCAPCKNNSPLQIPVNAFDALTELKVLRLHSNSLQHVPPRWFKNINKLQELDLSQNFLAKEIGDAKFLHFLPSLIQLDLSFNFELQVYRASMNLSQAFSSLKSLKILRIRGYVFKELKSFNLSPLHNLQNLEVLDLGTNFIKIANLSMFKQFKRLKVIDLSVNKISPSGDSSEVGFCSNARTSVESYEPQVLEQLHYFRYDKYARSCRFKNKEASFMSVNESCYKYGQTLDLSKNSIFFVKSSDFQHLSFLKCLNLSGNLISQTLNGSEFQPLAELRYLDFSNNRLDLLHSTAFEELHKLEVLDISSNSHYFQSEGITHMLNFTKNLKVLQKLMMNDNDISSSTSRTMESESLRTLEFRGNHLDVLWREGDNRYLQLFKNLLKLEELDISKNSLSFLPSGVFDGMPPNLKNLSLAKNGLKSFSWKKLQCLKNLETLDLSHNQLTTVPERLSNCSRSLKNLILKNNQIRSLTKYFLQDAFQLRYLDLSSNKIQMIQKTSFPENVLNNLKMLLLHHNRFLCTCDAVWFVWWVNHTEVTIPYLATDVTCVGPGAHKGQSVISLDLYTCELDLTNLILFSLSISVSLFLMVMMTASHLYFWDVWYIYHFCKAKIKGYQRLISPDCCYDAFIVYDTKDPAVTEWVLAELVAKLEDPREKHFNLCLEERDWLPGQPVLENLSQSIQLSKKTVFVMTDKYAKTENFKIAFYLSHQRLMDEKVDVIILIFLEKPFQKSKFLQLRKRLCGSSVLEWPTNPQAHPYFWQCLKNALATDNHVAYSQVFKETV
Nature of the assay: TLR7 inhibition reporter assay (HEK-Blue cells, SEAP reporter, gardiquimod stimulation). The conditions noted are these: HEK-Blue cells overexpressing human TLR7, gardiquimod 7.5 μM. It counts as cell-based. The procedure, abridged: (§1)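 In this cell reporter format, test compounds at 0.05 nM-50 μM final incubate 22 h with seeded cells (TLR7 15000, TLR8 20,000 per well). SEAP read-out by HEK-Blue Detection medium yields % inhibition relative to agonist/DMSO and known-inhibitor wells.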
Background: A reporter such as luciferase makes a cellular process visible.

The next assay addresses T2, human TLR8 (Homo sapiens, UniProt Q9NR97).
T2 construct: host or cells: HEK-Blue cells
T2 sequence (Q9NR97 27-1041): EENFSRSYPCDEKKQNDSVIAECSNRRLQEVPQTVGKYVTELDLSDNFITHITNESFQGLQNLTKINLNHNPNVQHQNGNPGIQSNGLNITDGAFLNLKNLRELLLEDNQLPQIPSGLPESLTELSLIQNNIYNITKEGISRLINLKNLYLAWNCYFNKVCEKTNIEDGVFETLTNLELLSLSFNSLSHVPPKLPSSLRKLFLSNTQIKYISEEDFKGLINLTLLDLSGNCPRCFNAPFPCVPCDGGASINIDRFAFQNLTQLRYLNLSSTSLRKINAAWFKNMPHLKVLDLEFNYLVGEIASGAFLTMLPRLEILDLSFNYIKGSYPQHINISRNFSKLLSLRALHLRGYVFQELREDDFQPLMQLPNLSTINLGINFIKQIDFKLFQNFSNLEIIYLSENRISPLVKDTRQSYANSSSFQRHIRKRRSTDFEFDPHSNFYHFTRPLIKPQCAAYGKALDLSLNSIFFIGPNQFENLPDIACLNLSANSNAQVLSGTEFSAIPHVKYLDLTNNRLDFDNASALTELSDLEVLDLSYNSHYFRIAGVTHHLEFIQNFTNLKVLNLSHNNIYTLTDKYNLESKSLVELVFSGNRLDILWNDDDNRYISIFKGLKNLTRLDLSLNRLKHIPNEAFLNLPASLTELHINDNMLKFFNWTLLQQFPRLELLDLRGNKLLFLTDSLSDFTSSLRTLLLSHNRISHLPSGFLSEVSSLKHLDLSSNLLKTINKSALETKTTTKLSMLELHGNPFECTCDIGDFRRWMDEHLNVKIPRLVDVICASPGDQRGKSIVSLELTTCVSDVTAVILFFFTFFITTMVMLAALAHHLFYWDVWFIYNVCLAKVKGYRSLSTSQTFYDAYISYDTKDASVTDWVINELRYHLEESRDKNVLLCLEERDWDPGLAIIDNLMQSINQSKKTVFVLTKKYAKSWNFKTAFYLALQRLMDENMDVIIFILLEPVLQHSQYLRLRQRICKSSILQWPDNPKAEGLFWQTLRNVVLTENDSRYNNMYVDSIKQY
The assay is described as follows: TLR8 inhibition reporter assay (HEK-Blue cells, SEAP reporter, R848 stimulation). It counts as cell-based. Particulars: HEK-Blue cells overexpressing human TLR8, R848 15.9 μM. The procedure, abridged:
as §1

Experimental findings from US11180474B2 (BRISTOL-MYERS SQUIBB COMPANY, priority 2016, dated 2021) are described below.

What is called IC50 is the point on the concentration scale where inhibition reaches its midpoint. Low readings indicate higher potency, high ones lower potency.

Structures are written as SMILES. Bounds are passed on as bounds.

For `COc1ccc(-c2[nH]c3ccc(C4CCN(C5CCN(C(C)C)CC5)CC4)cc3c2C)cc1OC` [Example 10, 2-(3,4-dimethoxyphenyl)-5-(1′-isopropyl-[1,4′-bipiperidin]-4-yl)-3-methyl-1H-indole], the figures for the IC50 on human TLR7 and at human TLR8 were 606 nM and 201 nM, respectively.
The like results for `CCc1c(-c2ccc(OC)c(OC)c2)[nH]c2ccc(C3CCN(C4CCN(Cc5cc(C)nn5C)CC4)CC3)cc12` [Example 132, 2-(3,4-dimethoxyphenyl)-5-(1′-((1,3-dimethyl-1H-pyrazol-5-yl)methyl)-[1,4′-bipiperidin]-4-yl)-3-ethyl-1H-indole] were, in that order, not below 50000 nM and not below 50000 nM.
In the case of `CCc1c(-c2ccc(OC)c(OC)c2)[nH]c2ccc(C3CCN(C4CCN(Cc5cnc(C)[nH]5)CC4)CC3)cc12` [Example 153, 2-(3,4-dimethoxyphenyl)-3-ethyl-5-(1′-((2-methyl-1H-imidazol-5-yl)methyl)-[1,4′-bipiperidin]-4-yl)-1H-indole], the concentration for half-maximal inhibition (IC50) on human TLR7 stood at 1470 nM; at human TLR8, 364 nM.
As to `CCc1c(-c2ccc(OC)c(OC)c2)[nH]c2ccc(C3CCN(C4CCN(Cc5coc(C)n5)CC4)CC3)cc12` [Example 126, 4-((4-(2-(3,4-dimethoxyphenyl)-3-ethyl-1H-indol-5-yl)-[1,4′-bipiperidin]-1′-yl)methyl)-2-methyloxazole], the IC50 on human TLR7 amounted to 920 nM; at human TLR8 it was 114 nM.
The like results for `CCc1c(-c2ccc(OC)c(OC)c2)[nH]c2ccc(C3CCN(C(=O)CN4CC[C@@H](O)C4)CC3)cc12` [Example 173, (R)-1-(4-(2-(3,4-dimethoxyphenyl)-3-ethyl-1H-indol-5-yl)piperidin-1-yl)-2-(3-hydroxypyrrolidin-1-yl)ethan-1-one] were, in that order, 43 nM and 25 nM.
As for `CNCCN1CCC(c2cc3c(C(C)C)c(-c4ccc(OC)c(OC)c4)[nH]c3cc2C)CC1` [Example 207, 2-(4-(2-(3,4-dimethoxyphenyl)-3-isopropyl-6-methyl-1H-indol-5-yl)piperidin-1-yl)-N-methylethan-1-amine], the half-inhibitory concentration (IC50) at human TLR7 was found to be 7300 nM; against human TLR8 it was 46900 nM.
For the compound `CCc1c(-c2ccc(OC)c(OC)c2)[nH]c2ccc(C3CCNCC3)cc12` [Example 122, 2-(3,4-dimethoxyphenyl)-3-ethyl-5-(piperidin-4-yl)-1H-indole], the IC50 on human TLR7 is 57 nM; at human TLR8, 26 nM.
On the same counts, the results for `COc1ccc(-c2[nH]c3ccc(C4CCN(C(=O)CNC5CCC(N(C)C)CC5)CC4)cc3c2C(C)C)cc1OC` (centres unmarked) [Example 215, 1-(4-(2-(3,4-dimethoxyphenyl)-3-isopropyl-1H-indol-5-yl)piperidin-1-yl)-2-((4-(dimethylamino)cyclohexyl)amino)ethan-1-one] are 36 nM and 163 nM.
The like results for `CCc1c(-c2ccc(OC)c(OC)c2)[nH]c2ccc(C3CCN(C4CCN(Cc5csnn5)CC4)CC3)cc12` [Example 130, 4-((4-(2-(3,4-dimethoxyphenyl)-3-ethyl-1H-indol-5-yl)-[1,4′-bipiperidin]-1′-yl)methyl)-1,2,3-thiadiazole] were, in that order, 4170 nM and 792 nM.
The like results for `COc1ccc(-c2[nH]c3ccc(C4CCN(C(=O)CNC5(CO)CCCC5)CC4)cc3c2C(C)C)cc1OC` [Example 213, 1-(4-(2-(3,4-dimethoxyphenyl)-3-isopropyl-1H-indol-5-yl)piperidin-1-yl)-2-((1-(hydroxymethyl)cyclopentyl)amino)ethan-1-one] were, in that order, 31 nM and 18 nM.
For the compound `CCc1c(-c2ccc(OC)c(OC)c2)[nH]c2ccc(C3CCN(CCNC)CC3)cc12` [Example 155, 2-(4-(2-(3,4-dimethoxyphenyl)-3-ethyl-1H-indol-5-yl)piperidin-1-yl)-N-methylethanamine di-trifluoroacetic acid], the values for the half-inhibitory concentration (IC50) on human TLR7 and against human TLR8 were 134 nM and 29 nM, respectively.
The like results for `COc1ccc(-c2[nH]c3ccc(C4CCN(C(=O)CNC(CO)CO)CC4)cc3c2C(C)C)cc1OC` [Example 220, 2-((1,3-dihydroxypropan-2-yl)amino)-1-(4-(2-(3,4-dimethoxyphenyl)-3-isopropyl-1H-indol-5-yl)piperidin-1-yl)ethan-1-one] were, in that order, 25 nM and 21 nM.
The like results for `CCc1c(-c2ccc(OC)c(OC)c2)[nH]c2ccc(C3CCN(C4CCN(Cc5cc6ccccc6[nH]5)CC4)CC3)cc12` [Example 128, 5-(1′-((1H-indol-2-yl)methyl)-[1,4′-bipiperidin]-4-yl)-2-(3,4-dimethoxyphenyl)-3-ethyl-1H-indole] were, in that order, 3280 nM and 629 nM.
On the same counts, the results for `CCc1c(-c2ccc(OC)c(OC)c2)[nH]c2ccc(C3CCN(C4CCN(Cc5ccc(-c6ccccc6)o5)CC4)CC3)cc12` [Example 143, 2-(3,4-dimethoxyphenyl)-3-ethyl-5-(1′-((5-phenylfuran-2-yl)methyl)-[1,4′-bipiperidin]-4-yl)-1H-indole] are 1260 nM and 706 nM.
Regarding `CCc1c(-c2ccc(OC)c(OC)c2)[nH]c2ccc(C3CCN(C(=O)C(C)(C)OC(C)=O)CC3)cc12` [Example 175, 1-(4-(2-(3,4-dimethoxyphenyl)-3-ethyl-1H-indol-5-yl)piperidin-1-yl)-2-methyl-1-oxopropan-2-yl acetate], the figures for the IC50 against human TLR7 and on human TLR8 were 1690 nM and 2060 nM, respectively.
`CCc1c(-c2ccc(OC)c(OC)c2)[nH]c2c(F)cc(C3CCNCC3)cc12` [Example 189, 2-(3,4-dimethoxyphenyl)-3-ethyl-7-fluoro-5-(piperidin-4-yl)-1H-indole]: the 50% inhibitory concentration (IC50) amounted to 430 nM against human TLR7 and 620 nM on human TLR8.
Turning to `COc1ccc(-c2[nH]c3ccc(C4CCN(C(=O)CNC56CC7CC(CC(O)(C7)C5)C6)CC4)cc3c2C(C)C)cc1OC` [Example 218, 1-(4-(2-(3,4-dimethoxyphenyl)-3-isopropyl-1H-indol-5-yl)piperidin-1-yl)-2-(((1r,3s,5R,7S)-3-hydroxyadamantan-1-yl)amino)ethan-1-one], the figures for the IC50 against human TLR7 and on human TLR8 were 44 nM and 54 nM, respectively.
On the same counts, the results for `CCc1c(-c2ccc(OC)c(OC)c2)[nH]c2cc(C)c(C3CCN(CCNC)CC3)cc12` [Example 188, 2-(4-(2-(3,4-dimethoxyphenyl)-3-ethyl-6-methyl-1H-indol-5-yl)piperidin-1-yl)-N-methylethanamine-di-trifluoroacetic acid] are 70 nM and 213 nM.
Consider `COc1ccc(-c2[nH]c3ccc(C4CCN(C(=O)CNCC(C)O)CC4)cc3c2C(C)C)cc1OC` (centres unmarked) [Example 210, 1-(4-(2-(3,4-dimethoxyphenyl)-3-isopropyl-1H-indol-5-yl)piperidin-1-yl)-2-((2-hydroxypropyl)amino)ethan-1-one], for which the IC50 stood at 13 nM at human TLR7 and 25 nM against human TLR8.
